The target of data set [1] is PKC-α (Homo sapiens, UniProt P17252). Put plainly: PKC Enzyme Assay, alpha isozyme. The class given is biochemical. The note with it: Table 1. How it is done: (§1) PKC enzymes=alpha, beta I, beta II, gamma, delta, epsilon, eta and zeta.
(§2) Assay components in a total volume of 250 μL are as follows:
(§3) For all the enzymes either histone type HL (Worthington) or myelin basic protein is used as substrate. The assay is started by addition of protein kinase C enzyme incubated at 30° C. for 10 minutes and stopped by adding 0.5 mL of cold trichloroacetic acid (Amresco) followed by 100 μL of 1 mg/mL bovine serum albumin (Sigma, St. Louis, Mo.). The precipitate is collected by vacuum filtration on glass fiber filters employing a TOMTEC™ filtration system and quantified by counting in a beta scintillation counter.

Data set [2] addresses PKC-β1 (Homo sapiens, UniProt P05771). Put plainly: PKC Enzyme Assay, beta-1 isozyme. It counts as biochemical. To be noted: Table 1. As for the experimental part:
as §1, §2, §3

The target of data set [3] is PKC-β2 (Homo sapiens, UniProt P05771). Put plainly: PKC Enzyme Assay, beta-2 isozyme. The class given is biochemical. To be noted: Table 1. As for the experimental part: as §1, §2, §3
Sequence of PKC-β2 (P05771 1-673 isoform P05771-2): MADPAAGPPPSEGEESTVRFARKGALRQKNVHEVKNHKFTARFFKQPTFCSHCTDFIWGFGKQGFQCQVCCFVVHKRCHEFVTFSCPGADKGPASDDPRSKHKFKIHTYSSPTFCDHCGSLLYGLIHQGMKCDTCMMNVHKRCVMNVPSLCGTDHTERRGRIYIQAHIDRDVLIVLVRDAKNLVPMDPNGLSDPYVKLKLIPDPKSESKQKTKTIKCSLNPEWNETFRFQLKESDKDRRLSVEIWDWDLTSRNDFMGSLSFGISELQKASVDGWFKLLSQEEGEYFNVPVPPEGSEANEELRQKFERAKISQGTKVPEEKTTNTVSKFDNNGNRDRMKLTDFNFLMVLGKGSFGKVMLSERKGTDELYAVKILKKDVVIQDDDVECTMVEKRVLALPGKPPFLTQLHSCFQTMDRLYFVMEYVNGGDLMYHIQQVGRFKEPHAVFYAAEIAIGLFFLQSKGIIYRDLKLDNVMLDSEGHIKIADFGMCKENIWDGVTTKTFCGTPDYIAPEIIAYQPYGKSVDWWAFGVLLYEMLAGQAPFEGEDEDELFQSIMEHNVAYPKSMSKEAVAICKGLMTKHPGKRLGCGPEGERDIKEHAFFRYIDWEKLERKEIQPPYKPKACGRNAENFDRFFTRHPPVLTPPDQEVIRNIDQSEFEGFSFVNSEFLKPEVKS
Data set [4] addresses T1, cAMP-dependent kinase catalytic subunit (Bos taurus, UniProt P00517).
T1 construct: purchased Sigma, St. Louis, Mo; host or cells: bovine heart
Description: cAMP-Dependent protein Kinase Catalytic Subunit Assay. The class given is biochemical, bovine. To be noted: Table 1. How it is done:
cAMP-Dependent protein Kinase Catalytic Subunit Assay (PEA) The Assay components are in a total volume of 250 μL: 20 mM HEPES (Sigma, St. Louis, Mo.) buffer pH 7.5, 200 μg/mL histone type HL (Worthington), 10 mM magnesium chloride (Sigma, St. […] The reaction is initiated by addition of bovine heart cAMP-dependent kinase catalytic subunit (Sigma, St. Louis, Mo.), incubated to 30° C. for 10 minutes and stopped by adding 0.5 mL ice cold Trichloroacetic acid (Amresco) followed by 100 μL of 1 mg/mL bovine serum albumin (Sigma). The precipitate is collected by vacuum filtrated on glass fiber filters employing a TOMTEC™ and quantified by counting in a beta scintillation counter. This assay is done identical to the protein kinase C (PKC) enzyme assay except that no phospholipids or diacylglycerol are employed in the assay and the histone substrate is specific for the cAMP-dependent catalytic subunit enzyme.

Data set [5] has as its target calcium calmodulin dependent protein kinase. Put plainly: Calcium Calmodulin Dependent Protein Kinase Assay (CAM). To be noted: Table 1. It counts as biochemical, rat. As for the experimental part: Calcium Calmodulin Dependent Protein Kinase Assay (CAM)
The reaction is initiated by the addition of calcium calmodulin dependent protein kinase (isolated from rat brain homogenate), incubated at room temperature for 10 minutes and stopped by adding 0.5 mL ice cold trichloroacetic acid (Amresco) followed by 100 μL of 1 mg/mL bovine serum albumin (Sigma, St. Louis, Mo.). The precipitate is collected by vacuum filtration on glass fiber filters and quantified by counting in a beta scintillation counter.
25 μL calmodulin (250 μg/mL)
10 μL DMSO or DMSO/inhibitor

The target of data set [6] is T2, casein protein kinase II (Rattus norvegicus, UniProt P19139).
T2 construct: isolated from rat brain homogenate; from tissue; host or cells: rat brain homogenate
T2 sequence (P19139 whole entry): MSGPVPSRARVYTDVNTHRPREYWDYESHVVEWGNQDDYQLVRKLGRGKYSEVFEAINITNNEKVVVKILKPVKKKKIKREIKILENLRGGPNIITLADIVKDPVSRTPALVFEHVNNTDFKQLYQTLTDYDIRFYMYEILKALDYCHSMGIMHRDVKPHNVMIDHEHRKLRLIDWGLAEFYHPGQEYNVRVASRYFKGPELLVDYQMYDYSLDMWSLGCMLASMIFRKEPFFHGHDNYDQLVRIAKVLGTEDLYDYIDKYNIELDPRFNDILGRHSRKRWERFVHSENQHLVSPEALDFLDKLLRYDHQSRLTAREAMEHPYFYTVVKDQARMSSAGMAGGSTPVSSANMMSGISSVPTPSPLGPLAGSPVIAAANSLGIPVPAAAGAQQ
T2 sequence (P67874 2-215 partner limits assumed): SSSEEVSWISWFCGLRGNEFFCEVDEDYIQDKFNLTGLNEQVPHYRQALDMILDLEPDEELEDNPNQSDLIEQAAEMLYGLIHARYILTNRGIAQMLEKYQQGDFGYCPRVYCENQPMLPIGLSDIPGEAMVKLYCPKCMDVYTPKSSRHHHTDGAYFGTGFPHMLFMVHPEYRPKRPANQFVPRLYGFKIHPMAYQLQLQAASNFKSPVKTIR
Put plainly: Casein Protein Kinase II Assay (CK-II). The note with it: Table 1. The class given is biochemical. As for the experimental part:
Casein Protein Kinase II Assay (CK-II)
The Casein Protein Kinase II Assay is described in Neurochem. […] The assay components are in a total volume of 250 μL: 20 mM Tris-HCl, pH 7.5, 5 mM sodium fluoride, 50 mg/mL Casein (Sigma, St. Louis, Mo.), 10 mM magnesium chloride (Sigma, St. Louis, Mo.), 10 μL DMSO or DMSO/inhibitor and 30 μm (gamma-32P) ATP (DuPont). Initiation of the reaction is performed by addition of casein protein kinase II (isolated from rat brain homogenate), incubated at room temperature for 10 minutes and stopped by the addition of 0.5 mL ice cold Trichloroacetic acid (Amresco) followed by 100 μL of 1 mg/mL bovine serum albumin (Sigma, St. Louis, Mo.). The precipitate is collected by vacuum filtration on glass fiber filters and quantified by counting in a beta scintillation counter.
Assay components in order of addition
10 μL or DMSO or DMSO/inhibitor
25 μL of AT32P in 300 μM magnesium chloride
40 μL of enzyme (undiluted)
Buffer prepared as follows:
(Final volume=3.5 mL: amount of 20 assays)

The target of data set [7] is T3, src (Homo sapiens, UniProt P12931).
T3 construct: purchased Onogene Science, Inc. PK02 and PK03
T3 sequence (P12931 whole entry, species assumed): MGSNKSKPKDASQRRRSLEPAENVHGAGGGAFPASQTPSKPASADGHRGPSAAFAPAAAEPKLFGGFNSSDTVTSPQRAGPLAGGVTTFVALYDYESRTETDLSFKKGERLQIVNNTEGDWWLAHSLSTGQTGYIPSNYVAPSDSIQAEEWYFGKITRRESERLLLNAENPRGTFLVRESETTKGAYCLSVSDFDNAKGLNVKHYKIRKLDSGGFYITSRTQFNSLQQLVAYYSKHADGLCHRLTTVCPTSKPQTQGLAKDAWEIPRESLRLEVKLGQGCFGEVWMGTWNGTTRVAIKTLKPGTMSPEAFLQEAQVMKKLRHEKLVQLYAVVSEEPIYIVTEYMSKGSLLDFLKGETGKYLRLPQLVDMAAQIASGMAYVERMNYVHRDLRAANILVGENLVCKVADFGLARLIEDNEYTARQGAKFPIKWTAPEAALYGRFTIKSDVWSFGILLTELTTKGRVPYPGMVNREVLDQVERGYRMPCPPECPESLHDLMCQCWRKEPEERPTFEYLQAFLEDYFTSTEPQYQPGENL
Put plainly: Protein Tyrosine Kinase Assay (src). The class given is biochemical. To be noted: Table 1. As for the experimental part: Protein Tyrosine Kinase Assay (src)
The Assay components are the following:
4 μL DMSO or DMSO/inhibitor

Data set [8] relates to protein kinase C. The note with it: literature; cited from earlier work.
Data set [9] addresses PKC gamma (Homo sapiens, UniProt P05129). Description: PKC Enzyme Assay, gamma isozyme. It counts as biochemical. To be noted: Table 2; read-out: Isozymes ED50 γ. How it is done: as §1, §2, §3
The target in data set [10] is PKC eta (Homo sapiens, UniProt P24723). Description: PKC Enzyme Assay, eta isozyme. The note with it: Table 2; read-out: Isozymes ED50 eta. The class given is biochemical. How it is done: as §1, §2, §3
Sequence of PKC eta (P24723 whole entry): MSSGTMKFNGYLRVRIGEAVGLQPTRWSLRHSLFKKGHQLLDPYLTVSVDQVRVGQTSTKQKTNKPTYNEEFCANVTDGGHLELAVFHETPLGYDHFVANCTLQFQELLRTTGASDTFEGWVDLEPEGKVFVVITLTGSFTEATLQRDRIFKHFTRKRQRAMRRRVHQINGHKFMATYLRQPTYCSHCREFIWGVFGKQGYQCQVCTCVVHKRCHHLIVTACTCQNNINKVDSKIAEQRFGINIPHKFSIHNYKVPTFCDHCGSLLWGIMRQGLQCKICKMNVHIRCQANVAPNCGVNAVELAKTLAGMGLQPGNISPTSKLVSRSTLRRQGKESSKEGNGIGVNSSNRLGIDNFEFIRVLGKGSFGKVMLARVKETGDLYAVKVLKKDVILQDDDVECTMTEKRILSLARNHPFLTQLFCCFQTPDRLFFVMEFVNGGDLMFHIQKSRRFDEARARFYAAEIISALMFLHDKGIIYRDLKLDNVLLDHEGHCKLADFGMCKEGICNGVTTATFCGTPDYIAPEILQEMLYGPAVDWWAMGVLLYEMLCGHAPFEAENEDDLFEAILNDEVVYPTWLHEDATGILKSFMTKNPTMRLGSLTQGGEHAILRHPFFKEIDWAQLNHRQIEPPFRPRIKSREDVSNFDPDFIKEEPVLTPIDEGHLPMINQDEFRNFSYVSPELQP
The conditions of data set [11]: from CN1C(=O)C(c2c[nH]c3ccccc23)=C(c2cn(CCCOC(CCI)CO[Si](c3ccccc3)(c3ccccc3)C(C)(C)C)c3ccccc23)C1=O; amine bond; cesium carbonate; DMF; 5.85 mM; 83.0 h.

Structures are written as SMILES. pIC50: −log10 of the molar value. Entries after “also recorded” stand apart in the source; their conditions may differ. Structures can show the parent of a compound that is named as a salt. Some results are limits rather than exact numbers.

Sequence of PKC-β1 (P05771 whole entry): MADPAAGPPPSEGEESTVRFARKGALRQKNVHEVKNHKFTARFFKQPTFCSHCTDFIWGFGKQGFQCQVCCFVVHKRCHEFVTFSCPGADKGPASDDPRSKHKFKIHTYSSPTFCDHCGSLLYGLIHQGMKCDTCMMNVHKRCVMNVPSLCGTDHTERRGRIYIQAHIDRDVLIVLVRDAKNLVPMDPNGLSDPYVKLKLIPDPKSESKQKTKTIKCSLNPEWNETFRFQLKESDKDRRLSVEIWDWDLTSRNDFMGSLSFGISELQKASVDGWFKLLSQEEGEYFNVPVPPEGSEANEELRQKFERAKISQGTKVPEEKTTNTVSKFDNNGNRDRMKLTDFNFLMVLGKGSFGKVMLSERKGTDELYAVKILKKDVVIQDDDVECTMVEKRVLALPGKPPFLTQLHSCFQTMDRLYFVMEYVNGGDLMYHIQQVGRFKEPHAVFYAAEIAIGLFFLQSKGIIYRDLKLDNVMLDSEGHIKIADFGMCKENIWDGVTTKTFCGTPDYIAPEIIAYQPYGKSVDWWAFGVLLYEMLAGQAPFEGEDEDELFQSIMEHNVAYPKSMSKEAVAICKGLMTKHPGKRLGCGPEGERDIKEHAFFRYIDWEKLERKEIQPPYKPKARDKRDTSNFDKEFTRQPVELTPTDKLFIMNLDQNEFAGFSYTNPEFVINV

Regarding `COCC1CCCn2cc(c3ccccc32)C2=C(C(=O)NC2=O)c2cn(c3ccccc23)CC1` (stereo not drawn) [Example 37, 3,4-[(N,N'-1,1'-(3"-methoxymethylene)-hexane)-bis-(3,3'-indolyl)]-1H-pyrrole-2,5-dione], the pIC50 in [1] is 6.15; in [2], 7.30; in [3] it was 7.40; in data set [4], less than 4.00; in data set [5] it was 5.30; in [6] it was less than 4.00. The pIC50 in [7] is less than 4.00.

With `O=C1NC(=O)C2=C1c1cn(c3ccccc13)CCCC(CO)CCn1cc2c2ccccc21` (stereo not drawn) [Example 31, 3,4-[(N,N'-1,1'-(3"-(hydroxy)methylene)hexane)-bis-(3,3'-indolyl)]-1H-pyrrole-2,5-dione], the pIC50 is 6.52 in data set [1]; 7.70 in data set [2]; 7.52 in data set [3]; less than 4.00 in data set [4]; 6.33 in data set [5]; less than 4.00 in data set [6]. The same compound had a pIC50 in data set [7] of less than 4.00.

For `NC[C@@H]1CCn2cc(c3ccccc32)C2=C(C(=O)NC2=O)c2cn(c3ccccc23)CCO1` [Example 4s], the pIC50 was 5.89 in [1]; 7.32 in data set [2]; 7.48 in data set [3]; less than 4.00 in data set [4]; 5.60 in [5]; less than 4.00 in [6]. In [7], this compound showed a pIC50 of 4.20.

In the case of `CN(C)CCCn1cc(C2=C(c3c[nH]c4ccccc34)C(=O)NC2=O)c2ccccc21` [3-[1-(3-dimethylaminopropyl)-indol-3-yl]-4-(1H-indol-3-yl)-1H-pyrrole-2,5-dione], in data set [8], the isozyme selectivity entry was “slight selectivity for the calcium dependent isozymes; also recorded: no difference, or possibly slight selectivity, for alpha over beta-1 and beta-2 isozymes”.

Consider `O=C1NC(=O)C2=C1c1cn(c3ccccc13)CCCC1(CCCn3cc2c2ccccc23)OCCO1` [Example 48], for which the pIC50 in data set [1] is less than 4.00; in data set [2], 6.30; in data set [3], 6.52; in data set [4], less than 4.00; in [5] it was less than 4.00; in [6], less than 4.00. Besides, the pIC50 in data set [7] was less than 4.00.

For `CC(=O)NC[C@H]1CCn2cc(c3ccccc32)C2=C(C(=O)NC2=O)c2cn(c3ccccc23)CCO1` [Example 19r], the pIC50 was 6.32 in data set [1]; 7.49 in data set [2]; 7.52 in [3]; less than 4.00 in data set [4]; 5.66 in data set [5]; less than 4.00 in data set [6]. The compound further had a pIC50 in data set [7] of less than 4.00.

Consider `O=C1NC(=O)C2=C1c1cn(c3ccccc13)CCC[C@@H](CN1CCCC1)CCn1cc2c2ccccc21` [Example 36r, (R)-3,4-[(N,N'-1,1'-(3"-(N-pyrrolidino)methylene)-hexane)-bis-(3,3"-indolyl)]-1H-pyrrole-2,5-dione hydrochloride salt], for which the pIC50 in [1] was 6.35; in [2], 8.30; in data set [3], 7.85; in data set [4] it was less than 4.00; in [5], 5.15; in data set [6], less than 4.00. In [7], this compound gave a pIC50 of 4.21.

`O=C(NCC1CCCn2cc(c3ccccc32)C2=C(C(=O)NC2=O)c2cn(c3ccccc23)CC1)OCc1ccccc1` (stereo not drawn) [Example 39]: the pIC50 in data set [1] was 4.51; in [2], 6.40; in data set [3], 6.52; in data set [4], less than 4.00; in [5], less than 4.00; in [6], less than 4.00. Besides, the pIC50 in [7] is less than 4.00.

As for `CN(C)CC1CCn2cc(c3ccccc32)C2=C(C(=O)NC2=O)c2cn(c3ccccc23)CCO1` (stereo not drawn) [Example 5], the pIC50 in data set [4] was less than 4.00; in data set [5], 5.40; in [6] it was less than 4.00; in data set [9], 6.64; in data set [10], 7.46.

In the case of `NC1CCCn2cc(c3ccccc32)C2=C(C(=O)NC2=O)c2cn(c3ccccc23)CCC1` [Example 45], the pIC50 in data set [1] is 5.52; in [2], 7.00; in data set [3], 7.00; in data set [4], less than 4.00; in data set [5], 4.41; in data set [6] it was less than 4.00. The pIC50 in data set [7] was less than 3.90.

Regarding `O=C1CCCn2cc(c3ccccc32)C2=C(C(=O)NC2=O)c2cn(c3ccccc23)CCC1` [Example 49], the pIC50 is 5.00 in [1]; 6.22 in [2]; 6.40 in data set [3]; less than 4.00 in data set [4]; less than 4.00 in [5]; less than 4.00 in [6]. Besides, the pIC50 in data set [7] is less than 4.00.

Turning to `CC(=O)NC1CCCn2cc(c3ccccc32)C2=C(C(=O)NC2=O)c2cn(c3ccccc23)CCC1` [Example 46], the pIC50 in data set [1] is 5.52; in [2], 7.40; in [3] it was 7.40; in data set [4], less than 4.00; in data set [5] it was 4.20; in [6] it was less than 4.00. In data set [7], this compound had a pIC50 of less than 4.00.

For the compound `CN1C(=O)C2=C(C1=O)c1cn(c3ccccc13)CCC(CO[Si](c1ccccc1)(c1ccccc1)C(C)(C)C)OCCCn1cc2c2ccccc21` (stereo not drawn), in data set [11], the ring closure, yield of all isomers was 97%.

On to `NCC1CCn2cc(c3ccccc32)C2=C(C(=O)NC2=O)c2cn(c3ccccc23)CCCO1` (stereo not drawn) [Example 9], for which the pIC50 in data set [1] is 5.52; in [2], 6.46; in data set [3], 6.80; in data set [4], less than 4.00; in data set [5] it was 4.59; in [6], less than 4.00. This compound also had a pIC50 in data set [7] of 4.24.

On to `CN(C)CC1CCn2cc(c3ccccc32)C2=C(C(=O)NC2=O)c2cn(c3ccccc23)CCCO1` (stereo not drawn) [Example 11], for which the pIC50 was 5.30 in [1]; 6.52 in data set [2]; 7.00 in data set [3]; less than 4.00 in [4]; 4.70 in data set [5]; less than 4.00 in [6]. Moreover, in data set [7], the pIC50 was less than 4.00.

With `NC[C@H]1CCn2cc(c3ccccc32)C2=C(C(=O)NC2=O)c2cn(c3ccccc23)CCO1` [Example 4r], the pIC50 in data set [1] was 6.52; in data set [2], 8.30; in data set [3], 7.68; in data set [4], less than 4.00; in [5] it was 6.16; in data set [6] it was less than 4.00. Also, in data set [7], the pIC50 is 4.48.

Regarding `NCC1CCCn2cc(c3ccccc32)C2=C(C(=O)NC2=O)c2cn(c3ccccc23)CC1` (stereo not drawn) [Example 32, 3,4-[(N,N'-1,1'-(3"-aminomethylene)-hexane)-bis-(3,3'-indolyl)]-1H-pyrrole-2,5-dione], the pIC50 in data set [1] was 7.00; in data set [2], 8.00; in [3], 8.10; in data set [4], less than 4.00; in data set [5] it was 6.05; in [6], less than 4.00. Besides, the pIC50 in [7] was 4.14.

The values are drawn from US5696108A, “Protein kinase C inhibitors” (Eli Lilly and Company, priority 1996, dated 1997).
